This is an account of results in patent US7223791B2, “Function regulator for retinoid relative receptor” (Takeda Pharmaceutical Company Limited, priority 2001, dated 2007).

The target in one series is T1, PPARγ-RXRα heterodimer (Homo sapiens, UniProt P19793+P37231).
T1 construct: 1.4 kb DNA fragment containing PPARγ gene was recovered from the gel; 1.4 kb DNA fragment containing RXRα gene was recovered from the gel; expressed in transfected cells
T1 sequence (P37231 1-477 isoform P37231-2): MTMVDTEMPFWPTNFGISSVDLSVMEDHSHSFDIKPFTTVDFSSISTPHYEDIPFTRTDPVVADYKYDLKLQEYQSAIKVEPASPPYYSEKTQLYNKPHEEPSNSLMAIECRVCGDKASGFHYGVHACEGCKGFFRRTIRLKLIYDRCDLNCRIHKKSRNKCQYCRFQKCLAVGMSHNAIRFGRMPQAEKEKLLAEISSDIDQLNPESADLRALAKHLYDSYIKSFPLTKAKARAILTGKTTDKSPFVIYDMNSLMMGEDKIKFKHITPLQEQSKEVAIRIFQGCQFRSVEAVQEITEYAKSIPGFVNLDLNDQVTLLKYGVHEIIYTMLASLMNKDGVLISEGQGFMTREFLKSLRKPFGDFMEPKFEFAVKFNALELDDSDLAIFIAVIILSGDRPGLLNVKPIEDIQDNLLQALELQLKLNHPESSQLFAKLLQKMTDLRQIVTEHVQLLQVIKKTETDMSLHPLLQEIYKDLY
T1 sequence (P19793 1-462): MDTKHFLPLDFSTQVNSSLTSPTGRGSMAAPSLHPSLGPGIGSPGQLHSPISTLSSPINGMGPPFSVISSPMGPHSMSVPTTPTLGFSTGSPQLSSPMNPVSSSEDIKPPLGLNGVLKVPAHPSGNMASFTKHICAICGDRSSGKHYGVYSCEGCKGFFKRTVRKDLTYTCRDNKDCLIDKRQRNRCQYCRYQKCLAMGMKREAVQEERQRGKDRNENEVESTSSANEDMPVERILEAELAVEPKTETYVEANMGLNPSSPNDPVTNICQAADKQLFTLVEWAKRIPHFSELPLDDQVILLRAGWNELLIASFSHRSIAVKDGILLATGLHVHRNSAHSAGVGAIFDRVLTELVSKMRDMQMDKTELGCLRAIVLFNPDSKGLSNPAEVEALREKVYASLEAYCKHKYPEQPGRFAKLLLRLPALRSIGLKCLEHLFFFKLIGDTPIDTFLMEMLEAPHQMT
As to the kind of experiment: PPARγ-RXRα heterodimer ligand activity (luciferase reporter, PPARγ:RXRα:4ERPP/CHO-K1 cells). It counts as cell-based. The following applies: 48 hrs, concentration for 50% of the maximum fold induction. As to the method: (PPARγ-RXRα Heterodimer Ligand Activity)
PPARγ: RXRα: 4ERPP/CHO-K1 cells obtained in the following Reference Example 5 were cultured in HAM F12 medium (manufactured by NISSUI SEIYAKU) containing 10% fetal bovine serum [manufactured by Life Technologies, Inc., USA], seeded in a 96-well white plate [manufactured by Corning Coster Corporation, USA] at the density of 2×10^4 cells/well and cultured in a CO2 gas incubator at 37° C. overnight.
After washing the 96-well white plate with PBS (Phosphate-buffered saline), 90 μl of HAM F12 medium containing 0.1% fatty acid-free bovine serum albumin (BSA) and 10 μl of test compound were added, and the cells were cultured in a CO2 gas incubator at 37° C. for 48 hrs. The medium was removed and 40 μl of PicaGene 7.5 (manufactured by Wako Pure Chemical Industries, Ltd.) was added. After stirring, the luciferase activity was determined using Lumistar [manufactured by BMG Labtechnologies GmbH, Germany].
The fold induction was calculated from the luciferase activity of each test compound when the luciferase activity of the test compound non-administration group is taken as 1. The values of the test compound concentration and the fold induction were analyzed using PRISM 2.01 (produced by GraphPad Software Inc. USA) to calculate the EC50 values, the concentration of a test compound for 50% of the maximum fold induction. The results are shown in [Table 2].
Introduction of Human PPARγ- and RXRα-Expression Plasmid and Reporter Plasmid into CHO-K1 Cell as Well as Establishment of Expressed Cell
A CHO-K1 cell cultured in a tissue culture flask (750 ml) [produced by Corning Costar Corporation, USA] containing HAM F12 medium (produced by NISSUI SEIYAKU) supplemented with 10% fetal bovine serum [produced by Life Technologies, Inc., USA] was scraped by treating with 0.5 g/L trypsin-0.2 g/L EDTA (ethylenediamine tetraacetate) [produced by Life Technologies, Inc., USA], and then the cell was washed with PBS (Phosphate-buffered saline)[produced by Life Technologies, Inc., USA], centrifuged (1000 rpm, 5 minutes) and suspended in PBS. Subsequently, DNA was introduced into the cell under the conditions shown below using GENE PULSER (produced by Bio-Rad Laboratories, USA).
Namely, to a cuvette having a 0.4 cm gap were added 8×10^6 cells and 10 μg of plasmid pVgRXR2-hPPARγ obtained in Reference Example 3 and 10 μg of reporter plasmid pGL3-4ERPP-TK neo obtained in Reference Example 4, which was subjected to electroporation at the voltage of 0.25 kV under the capacitance of 960 μF. Subsequently, the cell was transferred into a HAM F12 medium containing 10% fetal bovine serum and cultured for 24 hours, and then the cell was scraped again and centrifuged, and then suspended in HAM F12 medium containing 10% fetal bovine serum supplemented with 500 μg/ml of Geneticin [produced by Life Technologies, Inc., USA] and 250 μg/ml of Zeocin (produced by Invitrogen, USA). The obtained suspension was diluted to the density of 10^4 cells/ml and inoculated in a 96-well plate [produced by Corning Costar Corporation, USA], which was cultured in a CO2 gas incubator at 37° C., whereby obtaining a Geneticin- and Zeocin-resistant transformant.
Subsequently, after the transformant cell line thus obtained was cultured in a 24-well plate [produced by Corning Costar Corporation, USA], a cell line in which the luciferase was expressed and induced, i.e., PPARγ: RXRα: 4ERPP/CHO-K1 cell was selected by the addition of 10 μM pioglitazone hydrochloride.
(Reporter assays use an easily measured gene product as a stand-in for the process of interest.)

Structures are written as SMILES. A value given as a limit tells only on which side of the number the result lay.

In general, EC50 refers to the midpoint of the concentration-response curve. On to `O=C(O)c1ccc(-c2cc(-c3ccc(C(F)(F)F)cc3)no2)cc1` [Example 26, 4-[3-(4-trifluorophenyl)-5-isoxazolyl]benzoic acid], for which it took 23 nM to reach a half-maximal effect on PPARγ-RXRα heterodimer (EC50).
In general, melting point refers to the temperature of the solid-liquid transition. With `O=C(O)c1ccc(-c2cc(-c3ccc(Cl)cc3)on2)cc1` [Example 30, 4-[5-(4-chlorophenyl)-3-isoxazolyl]benzoic acid], the melting point was greater than 300 °C. At PPARγ-RXRα heterodimer, this molecule displayed an EC50 of 6 nM.
As for `O=C(O)c1ccc(-c2cc(-c3ccc(C(F)(F)F)cc3)on2)cc1` [Example 35, 4-[5-(4-trifluoromethylphenyl)-3-isoxazolyl]benzoic acid], the melting point is greater than 300 °C. For the same molecule, at PPARγ-RXRα heterodimer, the EC50 came to 3.8 nM.
In turn, `O=C(O)c1ccc(-c2noc(-c3ccc(C(F)(F)F)cc3)n2)cc1` [Example 44, 4-[5-(4-trifluoromethylphenyl)-1,2,4-oxadiazol-3-yl]benzoic acid] had a melting point of 286 to 287 °C. The molecule also displayed an EC50 at PPARγ-RXRα heterodimer of 68 nM.
The matching figures for `O=C(O)c1cccc(-c2ccc(-c3ccc(C(F)(F)F)cc3)o2)c1` [Example 9, 3-[5-(4-trifluoromethylphenyl)-2-furyl]benzoic acid]: 271 to 272 °C and 54 nM.
On the same counts, the results for `O=C(O)c1ccc(-c2cc(-c3ccccc3)on2)cc1` [Example 28, 4-(5-phenyl-3-isoxazolyl)benzoic acid] are 297 to 298 °C and 2.3 nM.
The matching figures for `O=C(O)c1cccc(-c2cc(-c3ccc(C(F)(F)F)cc3)no2)c1` [Example 33, 3-[3-(4-trifluoromethylphenyl)-5-isoxazolyl]benzoic acid]: 272 to 273 °C and 2.7 nM.
In turn, `O=C(O)c1ccc(-c2ccc(-c3ccc(C(F)(F)F)cc3)s2)cc1` [Example 16, 4-[5-(4-trifluoromethylphenyl)-2-thienyl]benzoic acid] showed a melting point of 284 to 285 °C. On PPARγ-RXRα heterodimer, this molecule gave an EC50 of 23 nM.
On the same counts, the results for `O=C(O)c1cccc(-c2cc(-c3ccc(Cl)cc3)on2)c1` [Example 29, 3-[5-(4-chlorophenyl)-3-isoxazolyl]benzoic acid] are 298 to 299 °C and 0.59 nM.
In the case of `O=C(O)c1ccc(-c2nc(-c3ccc(Cl)cc3)no2)c([N+](=O)[O-])c1` [Example 62, 4-[3-(4-chlorophenyl)-1,2,4-oxadiazol-5-yl]-3-nitrobenzoic acid], the melting point was in the range of 257 to 258 °C.
On to `O=C(O)c1cccc(-c2cc(-c3ccc(C(F)(F)F)cc3)on2)c1` [Example 34, 3-[5-(4-trifluoromethylphenyl)-3-isoxazolyl]benzoic acid], for which the melting point was in the range of 276 to 277 °C. This molecule yielded an EC50 at PPARγ-RXRα heterodimer of 1.2 nM.
On the same counts, the results for `O=C(O)c1cccc(-c2cc(-c3ccccc3)on2)c1` [Example 27, 3-(5-phenyl-3-isoxazolyl)benzoic acid] are 250 to 251 °C and 2.1 nM.
Turning to `O=C(O)c1cc(-c2ccc(-c3ccc(C(F)(F)F)cc3)o2)ccc1O` [Example 12, 5-[5-(4-trifluoromethylphenyl)-2-furyl]salicylic acid], the melting point lay in the range of 272 to 273 °C.
The same measure, in the same setting: for `O=C(O)c1ccc(-c2nnc(-c3ccc(C(F)(F)F)cc3)s2)cc1` [Example 59, 4 [5-(4-trifluoromethylphenyl)-1,3,4-thiadiazol-2-yl]benzoic acid] the value was greater than 300 °C.
On PPARγ-RXRα heterodimer, `CCOC(=O)c1ccc(-c2ccc(-c3ccc(C(F)(F)F)cc3)o2)cc1` [Example 6, ethyl 4-[5-(4-triflubromethylphenyl)-2-furyl]benzoate] came in with an EC50 of 3.6 nM.
`COC(=O)c1ccc(-c2nnc(-c3ccc(C(F)(F)F)cc3)o2)c(N)c1` [Example 76, methyl 3-amino-4-[5-(4-trifluoromethylphenyl)-1,3,4-oxadiazol-2-yl]benzoate] displayed a melting point of 237 to 238 °C.
Still for that read-out and setting: with `CC(C)(C)c1ccc(-c2nnc(-c3ccc(C(=O)O)cc3N)o2)cc1` [Example 72, 3-amino-4-[5-(4-t-butylphenyl)-1,3,4-oxadiazol-2-yl]benzoic acid] the figure was 266 to 268 °C; with `O=C(O)c1ccc(-c2nc(-c3ccc(C(F)(F)F)cc3)no2)c([N+](=O)[O-])c1` [Example 63, 3-nitro-4-[3-(4-trifluoromethylphenyl)-1,2,4-oxadiazol-5-yl]benzoic acid], 233 to 234 °C.
`O=C(O)c1ccc(-c2nnc(-c3ccccc3[N+](=O)[O-])o2)cc1` [Example 52, 4-[5-(2-nitrophenyl)-1,3,4-oxadiazol-2-yl]benzoic acid] gave a melting point of 239 to 240 °C.
`O=C(O)c1ccc(-c2nnc(-c3ccc(C(F)(F)F)cc3)o2)c([N+](=O)[O-])c1` [Example 69, 3-nitro-4-[5-(4-trifluoromethylphenyl)-1,3,4-oxadiazol-2-yl]benzoic acid] came in with a melting point of 254 to 255 °C.
In the case of `COC(=O)c1ccc(-c2nc(-c3ccc(C(F)(F)F)cc3)no2)c(NC(=O)C(F)(F)F)c1` [Example 65, methyl 3-trifluoroacetylamino-4-[3-(4-trifluoromethylphenyl)-1,2,4-oxadiazol-5-yl]benzoate], the melting point fell in the range of 188 to 189 °C.
On the same count and under the same terms, with `COC(=O)c1cccc(-c2cc(-c3ccccc3)on2)c1` [Example 20, methyl 3-(5-phenyl-3-isoxazolyl)benzoate] the figure was 99 to 100 °C; with `CCOC(=O)c1ccc(-c2nnc(-c3ccccc3N)o2)cc1` [Example 54, ethyl 4-[5-(2-aminophenyl)-1,3,4-oxadiazol-2-yl]benzoate], 174 to 175 °C; with `Nc1cc(C(=O)O)ccc1-c1nc(-c2ccc(C(F)(F)F)cc2)no1` [Example 66, 3-amino-4-[3-(4-trifluoromethylphenyl)-1,2,4-oxadiazol-5-yl]benzoic acid], greater than 300 °C.
On the same count and under the same terms, with `CCOC(=O)c1ccc(-c2nc(-c3ccccc3)ccc2Cl)cc1` [Example 1, ethyl 4-(3-chloro-6-phenyl-2-pyridyl)benzoate] the figure was 81 to 82 °C.
`CCOC(=O)c1ccc(-c2ccc(-c3ccc(Cl)cc3)s2)cc1` [Example 13, ethyl 4-[5-(4-chlorophenyl)-2-thienyl]benzoate] showed a melting point of 167 to 168 °C.
